This note sets out measurements from patent US9278915B2, “Agonists of GPR40” (CONNEXIOS LIFE SCIENCES PVT LTD, priority 2010, dated 2016).

Molecules are shown by their SMILES. Some results are limits rather than exact numbers.

This assay concerns the target T1, hGPR40 (Homo sapiens, UniProt O14842).
T1 construct: expressed in transfected cells
The assay is described as follows: Calcium flux assay to detect GPR40 activation. The following applies: CHO-K cells stably expressing hGPR40; Fluo-4 NW; read for 4 min at 5 s intervals. The format is cell-based. The method, then:
Biological Activity Calium Flux Assay to Detect GPR40 Activation: CHO-K cells stably expressing hGPR40 were selected in a media containing Neomycin/G418. The cells were plated at a concentration of 20,000 cells per well in black 96-well clear bottom tissue culture treated plates. The cells were cultured for 24 h at 37° C. in a humidified 5% CO2 air environment to allow for protein expression. The next day, after removal of media from wells, Fluo-4 NW (Invitrogen) is added at 100 ul/well and the cells were incubated for 30 min at 37° C. and for a further 30 min at RT. All test compounds were diluted to appropriate concentrations in HEPES buffer. Compounds were added to the cells and the wells were read in the BioTEK synergy reader and readings were taken for 4 min with an interval of 5 s.

T1 sequence (O14842 whole entry): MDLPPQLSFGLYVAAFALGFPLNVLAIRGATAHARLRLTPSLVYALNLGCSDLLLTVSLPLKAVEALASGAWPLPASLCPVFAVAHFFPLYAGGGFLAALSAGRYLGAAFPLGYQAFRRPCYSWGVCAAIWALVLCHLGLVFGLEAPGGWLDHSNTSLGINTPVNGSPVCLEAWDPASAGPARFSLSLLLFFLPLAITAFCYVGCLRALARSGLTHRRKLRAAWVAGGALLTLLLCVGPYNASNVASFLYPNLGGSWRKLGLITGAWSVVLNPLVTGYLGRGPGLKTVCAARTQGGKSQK

Consider `CO/N=C(\COc1ccc(COc2ccc(CCC(=O)O)cc2)cc1)c1ccc(S(C)(=O)=O)cc1` [Compound 92, 3-(4-{[4-({(2Z)-2-(Methoxyimino)-2-[4-(methylsulfonyl)phenyl]ethyl}oxy)benzyl]oxy}phenyl)propanoic acid], for which the concentration for a half-maximal effect (EC50) is over 100 nM.
Take `CO/N=C(\COc1ccc(COc2ccc(CCC(N)=O)cc2)cc1)c1ccccc1` [Compound 120, 3-{4-[(4-{[(2Z)-2-(Methoxyimino)-2-phenylethyl]oxy}benzyl)oxy]phenyl}propanamide]: the EC50 was over 100 nM.
The figure for `CO/N=C(/COc1ccc(COc2ccc(C(C#N)CC(=O)O)cc2)cc1)c1ccccc1` (racemic) [Compound 98, 3-Cyano-3-{4-[(4-{[(2E)-2-(methoxyimino)-2-phenylethyl]oxy}benzyl)oxy]phenyl}propanoic acid] is 10 to 100 nM; for `CON=C(COc1ccc(COc2ccc(C(C)(C)CC(=O)O)cc2)cc1)c1ccccc1` (mixture of isomers) [Compound 61, 3-{4-[(4-{[(2E,2Z)-2-(Methoxyimino)-2-phenylethyl]oxy}benzyl)oxy]phenyl}-3-methylbutanoic acid] it is over 100 nM; for `CO/N=C(\COc1ccc(COc2ccc(CCC(=O)O)cc2)cc1)c1sc2c(c1C)C(C)(C)CCC2(C)C` [Compound 106, 3-{4-[(4-{[(2E)-2-(Methoxyimino)-2-(3,4,4,7,7-pentamethyl-4,5,6,7-tetrahydro-1-benzothiophen-2-yl)ethyl]oxy}benzyl)oxy]phenyl}propanoic acid] it is over 100 nM.
For `CO/N=C(\COc1ccc(COc2ccc(CCC(=O)O)c(F)c2)cc1)c1ccccc1` [Compound 36, 3-{2-Fluoro-4-[(4-{[(2Z)-2-(methoxyimino)-2-phenylethyl]oxy}benzyl)oxy]phenyl}propanoic acid], the EC50 is under 10 nM.
The figure for `CO/N=C(\COc1ccc(COc2ccc(CCC(=O)O)c(C)c2)cc1)c1ccccc1` [Compound 38] is over 100 nM; for `C=CCO/N=C(/CC(=O)O)c1ccc(OCc2ccc(OCC(=NOC)c3ccccc3)cc2)cc1` (mixture of isomers) [Compound 121, (3Z)-3-{4-[(4-{[(2E,2Z)-2-(Methoxyimino)-2-phenylethyl]oxy}benzyl)oxy]phenyl}-3-[(prop-2-en-1-yloxy)imino]propanoic acid] it is over 100 nM.
The figure for `CO/N=C(\COc1ccc(COc2ccc(C(C#N)CC(=O)O)c(F)c2)cc1)c1ccccc1` (stereo not shown) [Compound 77, 3-Cyano-3-{2-fluoro-4-[(4-{[(2Z)-2-(methoxyimino)-2-phenylethyl]oxy}benzyl)oxy]phenyl}propanoic acid] is under 10 nM.
The figure for `CO/N=C(\COc1ccc(COc2ccc(-c3c(C)noc3CC(=O)O)cc2)cc1)c1ccccc1` [Compound 69, (4-{4-[(4-{[(2Z)-2-(Methoxyimino)-2-phenylethyl]oxy}benzyl)oxy]phenyl}-3-methyl-1,2-oxazol-5-yl)acetic acid] is over 100 nM.
Turning to `CO/N=C(\COc1ccc(COc2ccc(C3CC3C(=O)O)cc2)cc1)c1ccc(C#N)cc1` (stereo not shown) [Compound 45, 2-{4-[(4-{[(2Z)-2-(4-Cyanophenyl)-2-(methoxyimino)ethyl]oxy}benzyl)oxy]phenyl}cyclopropanecarboxylic acid], the EC50 is 10 to 100 nM.
The figure for `CO/N=C(\COc1ccc(COc2ccc(CCC(=O)O)c(F)c2)cc1)c1ccc(OC)cc1` [Compound 40, 3-{2-Fluoro-4-[(4-{[(2Z)-2-(methoxyimino)-2-(4-methoxyphenyl)ethyl]oxy}benzyl)oxy]phenyl}propanoic acid] is under 10 nM.
For `CN(C)CCO/N=C(/c1ccccc1)c1cccc(COc2ccc(CCC(=O)O)cc2)c1` [Compound 11, 3-[4-({3-[(E,Z)-{[2-(Dimethylamino)ethoxy]imino}(phenyl)methyl]benzyl}oxy)phenyl]propanoic acid], the EC50 is over 100 nM.
